# Results: paper PMC13164762, “Development and Validation of an LC-MS/MS Method for the Quantitation of JNJ-64619178 (JNJ) in Mouse Plasma: Characterization of In Vitro and In Vivo Pharmacokinetic Properties” (Molecules, 2026)
# “And” between values parts separate entries of the source, which are not always exact repeats. Identical values can stand only once. Like-named read-outs stand apart in the source and are kept apart here.
# Legend:
# [1] = In vivo PK study (plasma, IV and PO); parameters: species or system balb/c mice; conditions: for half-life: read-out: t1/2 (terminal half-life) (converted)
# Description: We performed in vivo PK analysis for JNJ by 2.5 mg kg^−1 IV and 10 mg kg^−1 PO routes of administration in healthy male balb/c mice. We could quantify a dynamic range of concentrations in in vivo PK samples with our established LC-MS/MS method. Non-compartmental analysis (NCA) was performed using Phoenix software version 8.3 to estimate PK parameters from the observed plasma concentration–time profile data. […] The NCA PK parameter data are represented in Table 6. For the oral PK study, male balb/C mice were grouped into two groups, with n = 4 for each group. Throughout the experiment, mice had free access to adequate food and water. The oral solution comprised 20% (v/v) polyethylene glycol 400, 10% (v/v) propylene glycol, 10% (v/v) ethanol, 2% (v/v) DMSO, 5% cremophore, and water as the rest of the volume. For the IV dose administration, 12 male balb/C mice were used in the study, divided into two groups. The IV solution used the same composition as the oral study. Doses of 10 and 2.5 mg kg^−1 were used for oral and IV routes, respectively. Blood samplings were done at 5 min, 15 min, 30 min, 1 h, 2 h, 4 h, 8 h, and 24 h. After collection, blood samples were centrifuged immediately at 956× g for 10 min, and plasma was separated in an Eppendorf tube and stored at −80 °C until processed. In the oral PK study, tissues—liver, kidney, spleen, lung, and brain—were collected at 2, 8, and 24 h to assess the biodistribution pattern of JNJ in the oral route.
# [2] = Parallel artificial membrane permeability assay (PAMPA); assay type: physicochemical; conditions: 5 µg mL^−1 in PBS, room temperature, read-out: apparent permeability (Papp), PAMPA
# Description: A Corning® BioCoat™ Pre-coated PAMPA Plate System, obtained from Corning Life Sciences (Glendale, AZ, USA), was used for the noncell-based permeability assay. As per the manufacturer’s instructions, the PAMPA plate was warmed at room temperature for 30 min to make it ready for use. A JNJ stock solution was prepared in PBS at a concentration of 5 µg mL^−1. Then, 300 µL of that prepared solution was poured into the donor side and 200 µL PBS was added to the acceptor side of each well in triplicate. After incubation for 5 h at room temperature, 50 µL samples were collected separately from the donor and acceptor chamber. Finally, samples were processed following the extraction procedure and analyzed using LC-MS/MS analysis. The apparent permeability coefficient is determined using the following formula:(8) Papp=−ln[1 − Cat/Ceq]/A ∗ 1/Vd + 1/Va∗t where Papp = apparent permeability in cm s^−1, Co = initial compound concentration in donor well (µg mL^−1), Cd(t) = compound concentration in donor well at time t (µg mL^−1), Ca(t) = compound concentration in acceptor well at time t (µg mL^−1), Vd = donor well volume (0.3 mL), Va = acceptor well volume (0.2 mL), A = filter area (0.3 cm^2), and t = incubation time (18,000 s). Ceq is calculated by(9) Ceq=[Cd(t)∗Vd+Ca(t)∗Va] /(Vd+Va)
# [3] = Microsomal metabolic stability, human liver microsomes; assay type: in vitro ADME
# Description: Mouse and human liver microsomes were used for the metabolic stability assay. In brief, the incubation mixture (500 µL) consisted of phosphate-buffered saline (PBS) (100 mM, pH 7.4), microsomal protein (0.5 mg mL^−1), magnesium chloride (10 mM), and NADPH (2 mM). Following pre-incubation of the above reaction mixture for 10 min at 37 °C, the reaction was initiated by spiking JNJ at a final 1 µg mL^−1 concentration. Alongside the test compound, testosterone at a final concentration of 1 µg mL^−1 was incubated as a positive control. All experiments were performed in triplicate. At sampling times of 0, 5, 10, 20, 30, 45, and 60 min, 40 µL samples were collected and quenched with 300 µL ice-chilled acetonitrile supplemented with 10 µL IS. Simultaneously, samples from NADPH-free negative controls were also withdrawn and processed accordingly to confirm any non-enzymatic degradation. Finally, after 1 h of collection, samples were vortexed at 1000 rpm for 1 min and centrifuged at 2200× g for 15 min, and the collected supernatant was analyzed using LC-MS/MS.
# The natural logarithm of the area ratio versus time was plotted, and the slope of the curve was calculated by a linear regression equation to generate the elimination rate constant, k (min^−1). CLint was calculated by the following equation:(2) CLint=0.693/t1/2×Volume of incubation mixture (mL)/microsomal protein (mg)
# CLH,int of JNJ in the mouse and human liver was then estimated from CLint using the scaling factor.(3) CLH,int=CLint×Microsomal protein (mg)/Liver (g)×Liver weight (g)/Body weight (kg)
# Here, 45 and 32 mg of microsomal protein per g of liver weight were applied, and 60 and 25 g of liver weight per kg body weight were used for mouse and human tissue, respectively.
# [4] = male, mouse, IV 2.5 mg kg^−1, balb/c mice, plasma, n = 6
# [5] = male, mouse, PO 10 mg kg^−1, balb/c mice, plasma, n = 4
structure (smiles),measurement,setting,value
"Nc1nc2cc(CC[C@H]3C[C@@H](n4ccc5c(N)ncnc54)[C@H](O)[C@@H]3O)ccc2cc1Br [JNJ, JNJ-64619178]",underestimation of observed plasma clearance by predicted hepatic clearance,"[1]; 1.6 vs 3.8 mL min^−1 kg^−1, mice",approximately 2.3 fold
same,in vivo clearance as % of mice hepatic blood flow,"[1]; IV, hepatic blood flow 3.6 L h^−1 kg^−1",~6%
same,volume of distribution relative to total body water,"[1]; IV, total body water 68.6% of body weight",~ 1.6 times
same,CL (plasma clearance),"[1]; PO 10 mg kg^−1, balb/c mice, oral CL normalized by bioavailability (%)",3.83 ± 0.67 mL/min/kg
same,Vz (volume of distribution),"[1]; PO 10 mg kg^−1, balb/c mice, oral Vz normalized by bioavailability (%)",0.88 ± 0.32 L/kg
same,Tmax,"[1]; PO 10 mg kg^−1, mice, plasma",~ 30 min
same,Cmax relative to IC50 in the HD-MB cell line,"[1]; PO 10 mg kg^−1, times higher than IC50 (821 ng mL^−1)",~ 3 times
same,clearance,"[1]; male, balb/c, mouse, plasma, 2.5 mg kg^−1, IV, equivalent to 0.23 L h^−1 kg^−1, read-out: observed plasma clearance",3.8 mL/min/kg
same,Tmax,"[1]; male, balb/c, mouse, plasma, iv, 2.5 mg/kg, IV 2.5 mg kg^−1, balb/c mice, plasma, n = 6, read-out: Tmax (converted)",0.11 ± 0.08 h
same,Tmax,"[1]; male, balb/c, mouse, plasma, po, 10 mg/kg, PO 10 mg kg^−1, balb/c mice, plasma, n = 4, read-out: Tmax (converted)",0.42 ± 0.14 h
same,Tmax,"[1]; male, balb/c, mouse, plasma, po, 10 mg/kg, PO 10 mg kg^−1, mice, plasma, read-out: Tmax (converted)",0.5 h
same,clearance,"[1]; male, mouse, plasma, IV 2.5 mg kg^−1, balb/c mice, n = 6, read-out: CL (plasma clearance) (converted)",3.83 mL/min/kg
same,Vd,"[1]; male, mouse, plasma, IV 2.5 mg kg^−1, balb/c mice, n = 6, read-out: Vz (volume of distribution)",1.2 ± 0.7 L/kg
same,half-life,"[1]; male, mouse, plasma, IV 2.5 mg kg^−1, balb/c mice, n = 6",3.3 ± 1.1 h
same,half-life,"[1]; male, mouse, plasma, PO 10 mg kg^−1, balb/c mice, n = 4",2.6 ± 0.7 h
same,bioavailability,"[1]; male, mouse, plasma, PO 10 mg kg^−1 vs IV 2.5 mg kg^−1, balb/c mice",~15% and 15%
same,AUC,[1]; [4],11600 ng·h/mL
same,Cmax,[1]; [4],4940 ± 1220 ng/mL
same,AUC,[1]; [5],6800 ± 1270 ng·h/mL
same,Cmax,[1]; [5],2780 ± 1030 ng/mL
same,"Papp at 5 h, 5 µg mL^−1",[2],7 ± 4 ×10⁻⁶ cm/s
same,microsomal intrinsic clearance (CLint),"[3]; HLM, mean ± SD, n = 3",0.01 ± 0.001 mL min^−1 mg^−1 protein
same,"hepatic intrinsic clearance (CLH,int)","[3]; HLM, scaled from CLint (32 mg protein/g liver, 25 g liver/kg)",7 ± 0.6 mL min^−1 kg^−1 body weight and 7 ± 0.5 mL min^−1 kg^−1 body weight
same,half-life at 1 µg mL^−1,"[3]; human, liver microsomes, pH 7.4, HLM, mean ± SD, n = 3, read-out: Half-life (t1/2)",2.47 ± 0.167 h
same,"remaining at 1 h, 1 µg mL^−1","[3]; human, liver microsomes, pH 7.4, HLMs, NADPH, 1 µg mL^−1, n = 3, read-out: percent remaining concentration after 1 h incubation",72 ± 2%
